Experimental data: US20170168056A1, “METHODS AND COMPOSITIONS FOR DETECTING AND MODULATING CANCER CELLS” (Massachusetts Institute of Technology, priority 2015, published 2017)

Columns and labels:
[1] = system: MDA-MB-231 xenograft tumors; test: Ki67 and cleaved caspase-3 immunostaining of xenograft tumor sections; assay type: in vivo, mouse; settings: for proliferation (Ki67) in control tumors: MDA-MB-231 control tumors; for proliferation (Ki67) in control tumors / proliferation (Ki67) in Mena and Mena^INV tumors: vs vehicle; for proliferation (Ki67) in Mena and Mena^INV tumors: Mena- and Mena^INV-expressing tumors; for apoptosis (cleaved caspase-3, CC3): all three types of tumor
Description: The effects of increased Mena/Mena^INV levels on taxol treatment in vitro (increased fractions of viable cells) and in vivo (resistance to anti-tumor growth effects) could arise from increased proliferation, decreased apoptosis or both. To evaluate the effects of Mena/Mena^INV on proliferation and cell death, tumor sections were stained with antibodies to Ki67 (a proliferation marker) and cleaved caspase-3 (apopotic marker). […] Therefore, elevated Mena/Mena^INV expression allows continued tumor growth in treated animals by blocking the anti-proliferative effects of taxol treatment.
Immunohistochemistry for Examples 16-22. Tumors dissected from NOD/SCID mice were fixed in 10% buffered formalin and embedded in paraffin. Tissue sections (5 μm thick) were deparaffinized followed by antigen retrieval using Citra Plus solution (Biogenex). After treatment with 3% H2O2, sections were blocked with serum, incubated with primary antibodies overnight at 4° C. and fluorescently labeled secondary antibodies at room temperature for 2 hours. Sections were stained using anti-MENA (1:500), biotinylated anti-MENA^INV (1:500), anti-CC3 (1:200), anti-Ki67 (1:200) and DAPI. Fluorochromes on secondary antibodies included AlexaFluor 488, 594 or 647 (Jackson Immunoresearch). Sections were mounted in Fluoromount mounting media and imaged at room temperature. Z series of images were taken on a DeltaVision microscope using Softworx acquisition, an Olympus 40×1.3 NA plan apo objective and a Photometrics CoolSNAP HQ camera. At least 10 fields were captured for each tumor, with at least 3 tumors per tumor group.
As such, proliferation and apoptosis was examined by quantifying the intensity of cells positive for Ki67 and CC3, respectively by immunostaining.

[2] = system: microtubules (MT); test: MT length image analysis; assay type: cell-based, human; settings: 231-MENA^INV cells, 10 nM paclitaxel 24 hours
[3] = system: microtubules (MT); test: Immunofluorescence ratio of Glu-MT (stable) to Tyr-MT (dynamic); assay type: cell-based, human
Procedure: Immunofluorescence. Glass bottom dishes (Mattek) were coated with Collagen at 0.1 mg/mL diluted in PBS and 50 μg/mL FN for 1 hour at 37° C. Cells were plated for 1 hour, and then treated with paclitaxel alone or in combination with MEKi for 24 hours. Cells were fixed for 20 minutes in 4% paraformaldehyde in PHEM buffer with 0.1% Gluteraldehyde, and then quenched with sodium borohydrate for 5 minutes. Cells were blocked with 2% BSA in TBS-0.1%TritonX-100 for 30 minutes, and incubated with primary antibodies and then secondary antibodies for 1 hour each, at room temperature. Z series of images were taken on an Applied Precision DeltaVision microscope using Softworx acquisition, an Olympus 60×1.4 NA plan apo objective and a Photometrics CoolSNAP HQ camera. Images were deconvolved using Deltavision Softworx software and objective specific point spread function. Images were analyzed with ImageJ, where the whole cell intensity levels of Tyr- or Glu-MT was measured. Images are pooled from at least 3 independent experiments.
Paclitaxel promotes cell death by increasing the stability of MTs, and pathways driving increased MT dynamics are known to promote resistance to taxanes. Therefore, MT structure and dynamics in MENA isoform expressing cells was examined during paclitaxel treatment. […] Post-translational modification of MTs can regulate their dynamics, and antibodies that detect such modifications can be used to infer the relative dynamics of MT populations; in particular, MT tyrosination indicates a dynamic MT state, while de-tyrosination of MTs is associated with increased stability. The relative abundance of stable (Glu-MT) vs. dynamic (Tyr-MT) MTs was measured in individual cells by immunofluorescence with anti-Glu-MT and anti-Tyr-MT antibodies (FIGS. 37A, 37B).
The MAPK signaling cascade is among the key pathways known to interact with MTs. Both ERK1/2 interact with MTs; MT stabilization by paclitaxel increases ERK phosphorylation and, in turn, ERK pathway activation increases MT dynamics.

[4] = system: MDA-MB-231 cells; test: Proliferation assay (cell count) with combinations of paclitaxel and MEKi; assay type: cell-based, human; settings: 231-MENA and 231-MENA^INV cells

For CC(=O)O[C@H]1C(=O)[C@@]2(C)[C@H]([C@H](OC(=O)c3ccccc3)[C@]3(O)C[C@H](OC(=O)[C@H](O)[C@@H](NC(=O)c4ccccc4)c4ccccc4)C(C)=C1C3(C)C)[C@]1(OC(C)=O)CO[C@@H]1C[C@@H]2O [paclitaxel], the “proliferation (Ki67) in control tumors” value [1] was “decreased the amount of Ki67 staining”, the “proliferation (Ki67) in control tumors” value ([1]; listed as Taxol) was “significantly decreased” and the “proliferation (Ki67) in Mena and Mena^INV tumors” value [1] was “failed to decrease the numbers of Ki67-positive cells”. For the same compound, the “proliferation (Ki67) in Mena and Mena^INV tumors” value ([1]; listed as Taxol) was “failed to decrease proliferation”, the “apoptosis (cleaved caspase-3, CC3)” value [1] was “increase in cell death as marked by CC3 positive cells in all tumors” and the “apoptosis (cleaved caspase-3, CC3)” value ([1]; listed as Taxol) was “similar, significant apoptotic responses”. The MT length [2] was “small but significant increase”, the “relative ratio of stable (Glu-MT) to dynamic (Tyr-MT) MTs” value ([3]; 231-Control cells, 10 nM paclitaxel 24 hours) was “significant increase” and the “relative levels of stable to dynamic MTs” value ([3]; 231-MENA and 231-MENA^INV cells, 10 nM paclitaxel 24 hours) was “no change”. The “stable MTs relative to dynamic MTs, either drug alone” value ([3]; 231-MENA^INV cells, single drug, 24 hours) was “had no effect” and the “concentrations needed to obtain high levels of cell death relative to 231-Control cells” value [4] was “higher concentrations of each drug were needed”.
